US20240041830A1, “CIRCULATING BIOMARKERS OF RESPONSE TO PD-1/PD-L1 BLOCKADE AND GSK-3 INHIBITION” (Brown University, priority 2022, published 2024)

Columns and labels:
HCT-116 = experiment: Luminex 200 cytokine profiling of cell culture supernatant; type: cell-based, human; conditions: 1 μM or 5 μM, forty-eight hours
Experimental: (§1) Collection of cell culture supernatants used in cytokine measurements. Cells were plated at 3.5×10^4 cells in a 48-well plate (Thermo Fisher Scientific, Waltham, MA, USA) in complete medium and incubated at 37° C. with 5% CO2. At twenty-four hours after plating, almost all the tumor cells were adherent to the bottom of the flask and the complete medium was replaced with the drug-containing medium. Subsequently, the culture supernatants were collected after forty-eight hours of incubation and were frozen at −80° C. until the measurement of cytokines was performed. On the day of analysis, samples were thawed and centrifuged to remove cellular debris.
(§2) Human cytokine profiling. Human cell line culture supernatants were analyzed using an R&D systems Human Premixed Multi-Analyte Kit (R&D Systems, Inc., Minneapolis, MN, USA) and a Luminex 200 (RRID: SCR_018025) Instrument (LX200-XPON-RUO, Luminex Corporation, Austin, TX, USA) according to the manufacturer's instructions. Sample levels of TNF-α, 4-1BB/TNFRSF9/CD137, IL-8/CXCL8, Ferritin, IFN-β, IL-10, CCL2/JE/MCP-1, VEGF, CXCL13/BLC/BCA-1, IFN-γ, CCL20/MIP-3 α, CCL3/MIP-1 α, CCL22/MDC, CCL4/MIP-1 β, Fas Ligand/TNFSF6, IL-17/1L-17A, IL-2, BAFF/BLyS/TNFSF13B, GM-CSF, CXCLS/ENA-78, TRANCE/TNFSF11/RANK L, CXCL9/MIG, G-CSF, IFN-γ R1/CD119, VEGFR3/Flt-4, C-Reactive Protein/CRP, CXCL11/I-TAC, IL-21, CXCL14/BRAK, IL-6, Fas/TNFRSF6/CD95, TRAIL R3/TNFRSF10C, IL-4, CCL5/RANTES, PD-L1/137-H1, CCL7/MCP-3/MARC, Chitinase 3-like 1, CXCL10/IP-10/CRG-2, IL-1 μ/IL-1F2, IL-7, Prolactin, CCL8/MCP-2, TRAIL R2/TNFRSF10B, M-CSF, IL-15, Granzyme B, IFN-α, TREM-1, IL-12/1L-23 p40, TRAIL/TNFSF10, CCL11/Eotaxin, and 1L-18/1L-1F4. Quantitative analysis with 6 standards and a minimum of 50 counts per bead region was used with the Luminex to generate analyte values reported as picograms/milliliter (pg/mL). Sample concentrations less than the lower limit of detection for each particular analyte were recoded as the lower limit value divided by 10. Sample concentrations above the upper limit of detection for a particular analyte were recoded as the upper limit of detection.
(§3) Huntington, Louie, Zhou, & EI-Deiry, Oncotarget, 12, 1980-1991 (2021). The inventors in this EXAMPLE treated tumor cells (HCT-116, HT-29) with 1 μM or 5 μM elraglusib for forty-eight hours and subsequently analyzed the cell culture supernatant using Luminex 200 technology (FIG. 2H,I).

HT-29 = experiment: as above; type: cell-based, human; conditions: 1 μM or 5 μM, forty-eight hours
Experimental: as §1, §2, §3

[1] = Luminex 200 analysis of patient plasma (NCT03678883); type: in vivo, human; conditions: eight hours and twenty-four hours after treatment
HT29 = experiment: CellTiter Glo cell viability; type: cell-based; conditions: Homo sapiens, HT-29, treatment up to 50 μM for seventy-two hours
Experimental: (§4) Measurement of cell viability. Cells were seeded at a density of 3×10^3 cells per well in a 96-well plate (Greiner Bio-One, Monroe, NC, USA). Cell viability was assessed using the CellTiter Glo assay (Promega, Madison, WI, USA). Cells were mixed with 25 μL of CellTiter-Glo reagents in 100 μL of culture volume, and bioluminescence imaging was measured using the Xenogen IVIS imager (Caliper Life Sciences, Waltham, MA). The percent of cell viability was determined by normalizing the luminescence signal to control wells. Dose-response curves were generated, and the half-maximal inhibitory concentration (IC50) was calculated using Graph-Pad Prism (RRID: SCR_002798) version 9.2.0. For IC50 generation, concentrations were log-transformed, and data were then normalized to control, and a log (inhibitor) versus response (three parameters) test was used. A panel of human colorectal cell lines was chosen to provide a varied mutational background (TP53, KRAS, BRAF, TRK, APC, PIK3CA). Cells were treated with elraglusib at doses up to 50 μM for seventy-two hours to determine IC10, IC30, IC50, and IC70. Cytokine, chemokine, and growth factor levels were analyzed in the tumor cell culture supernatants after treatment at IC10, IC30, IC50, and IC70 for forty-eight hours using a Luminex 200 multiplexing instrument. Co-culture experiments were conducted with GFP+ SW480 colorectal cancer cells and either NK-92 natural killer cells or TALL-104 T cells at various effector/target ratios in a 48-well plate, in the presence or absence of elraglusib. The inventors performed cell titer glo analysis to determine IC doses after treatment up to 50 μM for seventy-two hours. See TABLE below of IC50 values for the three cell lines.

KM12C = experiment: CellTiter Glo cell viability; type: cell-based; conditions: Homo sapiens, treatment up to 50 μM for seventy-two hours
Experimental: as §4

HCT116 = experiment: CellTiter Glo cell viability; type: cell-based; conditions: Homo sapiens, HCT-116, treatment up to 50 μM for seventy-two hours
Experimental: as §4

For `Cn1cc(C2=C(c3coc4ccc(F)cc34)C(=O)NC2=O)c2cc3c(cc21)OCO3` [elraglusib], the GDF-15 secretion (HCT-116) was “decreased secretion”, the GM-CSF secretion (HCT-116) was “decreased secretion” and the VEGF secretion (HCT-116) was “decreased secretion”. The CCL5/RANTES in supernatant (HCT-116; cell line not given) was “downregulated”, the DcR3 in supernatant (HCT-116; cell line not given) was “downregulated” and the Fas in supernatant (HCT-116; cell line not given) was “downregulated”. For the same compound, the “soluble PD-L1 (sPD-L1) in supernatant” value (HCT-116; cell line not given) was “downregulated”, the GDF-15 secretion (HT-29) was “decreased secretion” and the GM-CSF secretion (HT-29) was “decreased secretion”. For the same compound, the VEGF secretion (HT-29) was “decreased secretion”, the CCL5/RANTES in supernatant (HT-29; cell line not given) was “downregulated” and the DcR3 in supernatant (HT-29; cell line not given) was “downregulated”. For the same compound, the Fas in supernatant (HT-29; cell line not given) was “downregulated”, the “soluble PD-L1 (sPD-L1) in supernatant” value (HT-29; cell line not given) was “downregulated” and the “plasma cytokines, chemokines, growth factors vs baseline” value [1] was “upregulated”. It also gave an IC50 (HT29) of 0.41 µM, an IC50 (KM12C) of 0.2 µM and an IC50 (HCT116) of 0.37 µM.
